Blank lines part the entries; values can stand above or below the compound they belong to.
Columns and labels:
[1] = target: T1, Type-2 angiotensin II receptor (Homo sapiens, UniProt P50052); assay type: functional
T1 sequence (P50052 whole entry): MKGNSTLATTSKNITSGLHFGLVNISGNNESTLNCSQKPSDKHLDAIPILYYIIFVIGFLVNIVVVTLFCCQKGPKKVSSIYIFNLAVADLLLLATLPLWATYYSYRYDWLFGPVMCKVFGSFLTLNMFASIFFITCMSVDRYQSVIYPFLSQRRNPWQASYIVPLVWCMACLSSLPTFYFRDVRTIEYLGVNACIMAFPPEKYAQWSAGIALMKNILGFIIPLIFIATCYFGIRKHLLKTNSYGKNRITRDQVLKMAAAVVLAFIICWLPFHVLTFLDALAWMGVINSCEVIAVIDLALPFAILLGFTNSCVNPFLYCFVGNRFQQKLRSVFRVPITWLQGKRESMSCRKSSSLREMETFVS

[2] = target: T2, Muscarinic acetylcholine receptor M1 (Homo sapiens, UniProt P11229); assay type: functional, cell-based
T2 sequence (P11229 whole entry): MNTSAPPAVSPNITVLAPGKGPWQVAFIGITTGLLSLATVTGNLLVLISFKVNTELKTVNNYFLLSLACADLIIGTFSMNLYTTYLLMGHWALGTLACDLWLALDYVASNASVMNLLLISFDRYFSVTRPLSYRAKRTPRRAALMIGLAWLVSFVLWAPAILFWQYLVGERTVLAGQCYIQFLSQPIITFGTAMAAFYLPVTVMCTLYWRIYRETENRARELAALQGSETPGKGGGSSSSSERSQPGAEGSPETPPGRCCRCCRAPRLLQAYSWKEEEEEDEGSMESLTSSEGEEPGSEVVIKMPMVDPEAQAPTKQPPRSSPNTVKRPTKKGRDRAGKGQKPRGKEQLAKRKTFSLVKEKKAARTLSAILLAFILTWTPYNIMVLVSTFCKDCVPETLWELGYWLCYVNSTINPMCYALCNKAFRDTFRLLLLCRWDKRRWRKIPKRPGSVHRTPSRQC

[3] = target: T2, Muscarinic acetylcholine receptor M1; assay type: functional, cell-based; remark: listed apart in the source
[4] = target: T3, Muscarinic acetylcholine receptor M2 (Homo sapiens, UniProt P08172)
T3 sequence (P08172 whole entry): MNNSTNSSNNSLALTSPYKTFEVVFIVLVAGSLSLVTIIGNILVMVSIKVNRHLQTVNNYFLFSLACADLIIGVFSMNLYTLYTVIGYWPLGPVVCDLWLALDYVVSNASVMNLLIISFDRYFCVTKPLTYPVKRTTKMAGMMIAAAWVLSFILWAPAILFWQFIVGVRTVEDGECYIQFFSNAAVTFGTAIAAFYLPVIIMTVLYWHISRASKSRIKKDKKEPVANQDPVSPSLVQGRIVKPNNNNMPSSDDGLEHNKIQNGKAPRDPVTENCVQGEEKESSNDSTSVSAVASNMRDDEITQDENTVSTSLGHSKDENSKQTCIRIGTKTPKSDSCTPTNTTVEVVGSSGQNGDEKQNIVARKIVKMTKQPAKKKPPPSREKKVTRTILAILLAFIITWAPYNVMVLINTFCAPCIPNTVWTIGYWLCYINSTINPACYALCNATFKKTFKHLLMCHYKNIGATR

[5] = target: T1, Type-2 angiotensin II receptor; assay type: functional; remark: listed apart in the source
[6] = target: Retinoic acid receptor gamma (Homo sapiens, UniProt P13631); assay type: functional, cell-based
Sequence of Retinoic acid receptor gamma (P13631 whole entry): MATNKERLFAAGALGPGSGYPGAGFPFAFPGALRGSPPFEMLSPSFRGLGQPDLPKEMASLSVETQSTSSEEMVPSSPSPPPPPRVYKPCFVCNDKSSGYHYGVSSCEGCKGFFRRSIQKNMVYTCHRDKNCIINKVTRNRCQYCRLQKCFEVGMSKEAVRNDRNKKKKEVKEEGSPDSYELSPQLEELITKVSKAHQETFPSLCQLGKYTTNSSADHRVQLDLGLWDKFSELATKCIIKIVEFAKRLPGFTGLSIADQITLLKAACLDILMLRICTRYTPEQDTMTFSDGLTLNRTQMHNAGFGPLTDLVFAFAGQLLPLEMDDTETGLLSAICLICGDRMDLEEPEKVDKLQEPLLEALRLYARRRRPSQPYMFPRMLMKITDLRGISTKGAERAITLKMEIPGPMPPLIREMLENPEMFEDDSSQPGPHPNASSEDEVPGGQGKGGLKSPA

[7] = target: T4, Type-1 angiotensin II receptor (Homo sapiens, UniProt P30556)
T4 sequence (P30556 whole entry): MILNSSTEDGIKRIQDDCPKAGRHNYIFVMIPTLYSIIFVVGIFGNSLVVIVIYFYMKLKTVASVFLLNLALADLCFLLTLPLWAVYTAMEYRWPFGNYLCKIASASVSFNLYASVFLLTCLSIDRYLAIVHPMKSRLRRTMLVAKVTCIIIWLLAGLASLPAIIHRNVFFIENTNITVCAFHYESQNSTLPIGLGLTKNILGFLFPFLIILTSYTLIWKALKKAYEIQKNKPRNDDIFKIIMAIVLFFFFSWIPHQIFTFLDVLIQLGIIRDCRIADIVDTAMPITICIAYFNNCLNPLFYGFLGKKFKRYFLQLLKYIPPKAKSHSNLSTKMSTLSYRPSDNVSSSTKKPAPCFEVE

[8] = target: Oxysterols receptor LXR-alpha (Homo sapiens, UniProt Q13133); assay type: functional
Sequence of Oxysterols receptor LXR-alpha (Q13133 whole entry): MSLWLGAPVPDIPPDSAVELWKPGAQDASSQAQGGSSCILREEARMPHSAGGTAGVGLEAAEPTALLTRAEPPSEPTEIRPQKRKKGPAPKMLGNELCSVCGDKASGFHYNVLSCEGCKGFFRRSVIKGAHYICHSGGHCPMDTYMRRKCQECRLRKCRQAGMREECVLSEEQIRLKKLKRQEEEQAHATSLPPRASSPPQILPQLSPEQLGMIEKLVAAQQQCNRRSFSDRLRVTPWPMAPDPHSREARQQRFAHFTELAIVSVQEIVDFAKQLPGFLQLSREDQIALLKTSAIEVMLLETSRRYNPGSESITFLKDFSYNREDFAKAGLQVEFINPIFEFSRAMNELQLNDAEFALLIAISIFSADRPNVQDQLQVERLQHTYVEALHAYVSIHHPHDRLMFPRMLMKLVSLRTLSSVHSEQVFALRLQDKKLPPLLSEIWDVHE

[9] = target: T5, Peroxisome proliferator-activated receptor alpha (Homo sapiens, UniProt Q07869); assay type: functional
T5 sequence (Q07869 whole entry): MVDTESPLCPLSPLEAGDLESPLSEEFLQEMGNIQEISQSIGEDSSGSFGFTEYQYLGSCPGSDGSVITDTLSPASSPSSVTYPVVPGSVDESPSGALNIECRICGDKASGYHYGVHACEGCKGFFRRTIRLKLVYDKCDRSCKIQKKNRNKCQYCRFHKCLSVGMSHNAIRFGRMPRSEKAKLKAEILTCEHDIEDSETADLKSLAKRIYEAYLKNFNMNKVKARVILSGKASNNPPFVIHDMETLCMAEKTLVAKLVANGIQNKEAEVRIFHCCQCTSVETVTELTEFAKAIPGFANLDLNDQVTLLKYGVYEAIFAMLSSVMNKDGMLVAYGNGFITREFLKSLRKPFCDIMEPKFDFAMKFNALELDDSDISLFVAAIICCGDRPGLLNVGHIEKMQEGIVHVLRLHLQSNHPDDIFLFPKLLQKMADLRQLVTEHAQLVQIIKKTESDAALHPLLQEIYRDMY

[10] = target: Retinoic acid receptor alpha (Homo sapiens, UniProt P10276); assay type: functional, cell-based
Sequence of Retinoic acid receptor alpha (P10276 whole entry): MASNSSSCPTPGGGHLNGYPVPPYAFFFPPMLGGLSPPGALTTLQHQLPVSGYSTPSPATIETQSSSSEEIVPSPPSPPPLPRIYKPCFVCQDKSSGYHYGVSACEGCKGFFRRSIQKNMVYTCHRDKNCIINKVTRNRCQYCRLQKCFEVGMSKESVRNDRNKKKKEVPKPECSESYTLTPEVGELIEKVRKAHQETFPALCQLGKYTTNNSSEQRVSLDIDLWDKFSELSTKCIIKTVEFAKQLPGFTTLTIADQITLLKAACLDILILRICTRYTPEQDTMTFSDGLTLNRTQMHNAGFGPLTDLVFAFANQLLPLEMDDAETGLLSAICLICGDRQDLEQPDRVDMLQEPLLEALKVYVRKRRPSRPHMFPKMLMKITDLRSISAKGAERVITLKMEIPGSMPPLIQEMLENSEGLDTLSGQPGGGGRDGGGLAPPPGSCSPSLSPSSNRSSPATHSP

[11] = target: T5, Peroxisome proliferator-activated receptor alpha; assay type: functional; remark: listed apart in the source
Further: assay procedure not described here.

SMILES: O=C(O)Cc1ccccc1Nc1c(Cl)cccc1Cl [DICLOFENAC]
AC50 [1]: 85 µM

SMILES: O=C1Cc2cc(CCN3CCN(c4nsc5ccccc45)CC3)c(Cl)cc2N1 [ZIPRASIDONE]
AC50 [2]: 20 µM
AC50 [3]: > 30 µM
AC50 [4]: 6.3 µM

AC50 [5]: 84.8 µM
SMILES: CCOc1nc2cccc(C(=O)O)c2n1Cc1ccc(-c2ccccc2-c2nnn[nH]2)cc1

AC50 [6]: > 30 µM
AC50 [7]: 50 µM
AC50 [8]: > 30 µM
AC50 [9]: > 30 µM
AC50 [10]: > 30 µM
AC50 [11]: > 30 µM
SMILES: COc1cc(C(=O)NS(=O)(=O)c2ccccc2C)ccc1Cc1cn(C)c2ccc(NC(=O)OC3CCCC3)cc12 [ZAFIRLUKAST]

— ChEMBL document CHEMBL5291721, “A preclinical secondary pharmacology resource illuminates target-adverse drug reaction associations of marketed drugs” (Nat Commun, 2023)
